Values joined by “and” are separate entries in the source; they are usually repeats but may differ in a detail not shown here. Identical values can stand only once. Toxic doses and inconclusive results are not listed. Cut-off read from the data, not from the text of the source: active = T/C of 150% or more; inactive = T/C below 125%.
Test system: L1210 leukemia ip in BDF1 mice, survival T/C
Experiment: NCI In Vivo Anticancer Drug Screen. Data for tumor model L1210 Leukemia (intraperitoneal) in B6D2F1 (BDF1) mice
Details: endpoint: mean survival time, higher = longer survival
How it was run: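 Antitumor effect is assessed in tumor-bearing animals. Survival in the compound arm is compared with a vehicle-dosed control arm and expressed as their quotient.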

[1] = dose: 100.0 mg/kg/injection, schedule: Q04DX002 (ip), vehicle: Klucel (hydroxypropylcellulose) (HPC)
[2] = dose: 100.0 mg/kg/injection, schedule: Q01DX001 (ip), vehicle: saline
[3] = dose: 200.0 mg/kg/injection, schedule: Q01DX001 (ip), vehicle: saline
[4] = dose: 100.0 mg/kg/injection, schedule: Q04DX003 (ip), vehicle: saline with Tween-80
[5] = dose: 100.0 mg/kg/injection, schedule: Q01DX009 (ip), vehicle: Klucel (hydroxypropylcellulose) (HPC)
[6] = dose: 100.0 mg/kg/injection, schedule: Q04DX003 (ip), vehicle: Klucel (hydroxypropylcellulose) (HPC)
[7] = dose: 200.0 mg/kg/injection, schedule: Q01DX009 (ip), vehicle: Klucel (hydroxypropylcellulose) (HPC)
[8] = dose: 200.0 mg/kg/injection, schedule: Q04DX003 (ip), vehicle: Klucel (hydroxypropylcellulose) (HPC)
[9] = dose: 400.0 mg/kg/injection, schedule: Q04DX003 (ip), vehicle: Klucel (hydroxypropylcellulose) (HPC)
[10] = dose: 50.0 mg/kg/injection, schedule: Q01DX001 (ip), vehicle: saline
[11] = dose: 400.0 mg/kg/injection, schedule: Q01DX001 (ip), vehicle: saline
[12] = dose: 100.0 mg/kg/injection, schedule: Q01DX001 (ip), vehicle: Klucel (hydroxypropylcellulose) (HPC)
[13] = dose: 100.0 mg/kg/injection, schedule: Q01DX009 (ip), vehicle: saline
[14] = dose: 200.0 mg/kg/injection, schedule: Q04DX003 (ip), vehicle: saline with Tween-80

Measured: T/C

N#Cc1ccc(N=C(N)N[N+](=O)[O-])cc1
inactive: dose: 25.0 mg/kg/injection, schedule: Q04DX002 (ip), vehicle: Klucel (hydroxypropylcellulose) (HPC) 96 % of control | dose: 50.0 mg/kg/injection, schedule: Q04DX002 (ip), vehicle: Klucel (hydroxypropylcellulose) (HPC) 104 % of control | [1] 104 % of control

O=C1N=C(c2ccccc2)OC1C(=O)c1ccccc1 (configuration not stated)
inactive: [2] 110 % of control | [3] 94 % of control

CCN(CC)C(=S)N1C(=O)C2C3CCC(O3)C2C1=O (configuration not stated)
inactive: dose: 6.25 mg/kg/injection, schedule: Q01DX009 (ip), vehicle: saline with Tween-80 97 % of control | dose: 6.25 mg/kg/injection, schedule: Q04DX002 (ip), vehicle: saline 107 % of control | dose: 12.5 mg/kg/injection, schedule: Q01DX009 (ip), vehicle: saline with Tween-80 101 % of control | dose: 12.5 mg/kg/injection, schedule: Q04DX002 (ip), vehicle: saline 104 % of control | dose: 25.0 mg/kg/injection, schedule: Q01DX009 (ip), vehicle: saline with Tween-80 101 % of control | dose: 25.0 mg/kg/injection, schedule: Q04DX002 (ip), vehicle: saline 100 % of control

COC1OC2COC(c3ccccc3)OC2C(O)C1N (configuration not stated)
inactive: dose: 50.0 mg/kg/injection, schedule: Q04DX003 (ip), vehicle: saline with Tween-80 93 % of control | [4] 98 % of control

COc1ccc(C(=O)NC(=S)Nc2ccccc2F)cc1
inactive: [5] 93 % of control | [6] 94 % of control | [7] 90 % of control | [8] 93 % of control | [9] 94 % of control

COC(=O)C1CCN(Cc2ccccc2)CC1=O (configuration not stated)
inactive: [10] 110 % of control | [2] 104 % of control | [3] 104 % of control | [11] 104 % of control

Cc1cc(Cl)c(Cl)cc1NC(=O)Nc1cccc(F)c1
inactive: dose: 100.0 mg/kg/injection, schedule: Q01DX009 (ip), vehicle: saline with Tween-80 94 % of control | dose: 200.0 mg/kg/injection, schedule: Q01DX009 (ip), vehicle: saline with Tween-80 100 % of control | dose: 400.0 mg/kg/injection, schedule: Q01DX009 (ip), vehicle: saline with Tween-80 94 % of control

CC(=O)Nc1cc(Cl)c(Nc2cc(S(=O)(=O)O)c(N)c3c2C(=O)c2ccccc2C3=O)c(Cl)c1
inactive: dose: 75.0 mg/kg/injection, schedule: Q01DX001 (ip), vehicle: saline 96 % of control | dose: 150.0 mg/kg/injection, schedule: Q01DX001 (ip), vehicle: saline 88 % of control

CCN(CC)S(=O)(=O)/C=C\c1ccccc1
inactive: dose: 50.0 mg/kg/injection, schedule: Q04DX003 (ip), vehicle: Klucel (hydroxypropylcellulose) (HPC) 96 % of control | [12] 98 % of control | [6] 107 % of control | dose: 200.0 mg/kg/injection, schedule: Q01DX001 (ip), vehicle: Klucel (hydroxypropylcellulose) (HPC) 107 % of control | [8] 102 % of control | dose: 400.0 mg/kg/injection, schedule: Q01DX001 (ip), vehicle: Klucel (hydroxypropylcellulose) (HPC) 102 % of control | [9] 104 % of control

O=C(OCC1COc2ccccc2O1)C(F)(F)F (configuration not stated)
inactive: dose: 100.0 mg/kg/injection, schedule: Q01DX001 (ip), vehicle: carboxymethylcellulose (CMC) 95 % of control | dose: 200.0 mg/kg/injection, schedule: Q01DX001 (ip), vehicle: carboxymethylcellulose (CMC) 93 % of control | dose: 400.0 mg/kg/injection, schedule: Q01DX001 (ip), vehicle: carboxymethylcellulose (CMC) 98 % of control

CNc1ncnc2nn(C)c(C#N)c12
inactive: dose: 50.0 mg/kg/injection, schedule: Q04DX002 (ip), vehicle: saline 106 % of control | dose: 100.0 mg/kg/injection, schedule: Q04DX002 (ip), vehicle: saline 95 % of control | dose: 200.0 mg/kg/injection, schedule: Q04DX002 (ip), vehicle: saline 103 % of control

Cc1ccc(S(=O)(=O)OCC(CO)(CO)[N+](=O)[O-])cc1
inactive: dose: 50.0 mg/kg/injection, schedule: Q01DX009 (ip), vehicle: saline 90 % of control | [13] 92 % of control | dose: 100.0 mg/kg/injection, schedule: Q04DX003 (ip), vehicle: saline 97 % of control | dose: 200.0 mg/kg/injection, schedule: Q01DX009 (ip), vehicle: saline 90 % of control | dose: 200.0 mg/kg/injection, schedule: Q04DX003 (ip), vehicle: saline 88 % of control

CC(C)OC(=O)CC#N
inactive: [2] 103 % of control | [3] 103 % of control | [11] 103 % of control

CCN(CC)c1ccc(-c2cc(NS(=O)(=O)c3ccccc3)ccc2NS(=O)(=O)c2ccccc2)cc1
inactive: [12] 95 % of control

CN(C)C(=O)Nc1cccc(OC(=O)Nc2ccccc2)c1
inactive: [4] 104 % of control | [14] 96 % of control | dose: 400.0 mg/kg/injection, schedule: Q04DX003 (ip), vehicle: saline with Tween-80 96 % of control

S=P(NCCNP(=S)(N1CC1)N1CC1)(N1CC1)N1CC1
inactive: dose: 1.5 mg/kg/injection, schedule: Q01DX015 (ip), vehicle: saline 96 % of control | dose: 3.0 mg/kg/injection, schedule: Q01DX015 (ip), vehicle: saline 98 % of control | dose: 6.0 mg/kg/injection, schedule: Q01DX015 (ip), vehicle: saline 101 % of control | dose: 12.0 mg/kg/injection, schedule: Q01DX009 (ip), vehicle: carboxymethylcellulose (CMC) 104 % of control | dose: 12.0 mg/kg/injection, schedule: Q01DX015 (ip), vehicle: saline 102 % of control | dose: 12.5 mg/kg/injection, schedule: Q01DX009 (ip), vehicle: Klucel (hydroxypropylcellulose) (HPC) 108 % of control | dose: 12.5 mg/kg/injection, schedule: Q01DX009 (ip), vehicle: saline 112 % of control | dose: 25.0 mg/kg/injection, schedule: Q01DX009 (ip), vehicle: Klucel (hydroxypropylcellulose) (HPC) 120 % of control | dose: 25.0 mg/kg/injection, schedule: Q01DX009 (ip), vehicle: carboxymethylcellulose (CMC) 121 % of control | dose: 50.0 mg/kg/injection, schedule: Q01DX009 (ip), vehicle: Klucel (hydroxypropylcellulose) (HPC) 97 % of control | dose: 50.0 mg/kg/injection, schedule: Q01DX009 (ip), vehicle: carboxymethylcellulose (CMC) 115 % of control | [2] 106 % of control | dose: 100.0 mg/kg/injection, schedule: Q01DX009 (ip), vehicle: carboxymethylcellulose (CMC) 109 % of control | [13] 120 % of control | [3] 104 % of control | [11] 120 % of control

CC(=O)/C(=C\c1ccc(N(C)C)cc1)C(C)=[N+](C)C(=O)c1c(/[N+](C)=C(C)\C(=C\c2ccc(N(C)C)cc2)C(C)=O)ncn1C
inactive: [10] 103 % of control | [2] 103 % of control and 90 % of control | [3] 97 % of control and 118 % of control

COC(=O)C(c1ccccc1)C(Br)C(=O)c1ccccc1 (configuration not stated)
inactive: [5] 86 % of control | [6] 97 % of control | [7] 86 % of control | [8] 102 % of control | dose: 400.0 mg/kg/injection, schedule: Q01DX009 (ip), vehicle: Klucel (hydroxypropylcellulose) (HPC) 86 % of control | [9] 95 % of control

CN(C)/C=N\c1ncnc2c1ccn2C1OC(CO)C(O)C1O (configuration not stated)
inactive: dose: 1.56 mg/kg/injection, schedule: Q01DX005 (ip), vehicle: saline 104 % of control | dose: 1.56 mg/kg/injection, schedule: Q01DX009 (ip), vehicle: saline 109 % of control | dose: 3.12 mg/kg/injection, schedule: Q01DX005 (ip), vehicle: saline 116 % of control | dose: 3.12 mg/kg/injection, schedule: Q01DX009 (ip), vehicle: saline 114 % of control | dose: 6.25 mg/kg/injection, schedule: Q01DX005 (ip), vehicle: saline 93 % of control | dose: 6.25 mg/kg/injection, schedule: Q01DX009 (ip), vehicle: saline 88 % of control

CCC(O)(c1ccccc1)c1cnc(C)n1Cc1ccccc1 (configuration not stated)
inactive: dose: 100.0 mg/kg/injection, schedule: Q01DX001 (ip), vehicle: saline with Tween-80 100 % of control and 108 % of control | [1] 102 % of control | dose: 100.0 mg/kg/injection, schedule: Q04DX002 (ip), vehicle: saline with Tween-80 93 % of control and 105 % of control | [4] 101 % of control | dose: 200.0 mg/kg/injection, schedule: Q01DX001 (ip), vehicle: saline with Tween-80 107 % of control and 91 % of control | dose: 200.0 mg/kg/injection, schedule: Q04DX002 (ip), vehicle: Klucel (hydroxypropylcellulose) (HPC) 112 % of control | dose: 200.0 mg/kg/injection, schedule: Q04DX002 (ip), vehicle: saline with Tween-80 88 % of control and 91 % of control | [14] 100 % of control | dose: 400.0 mg/kg/injection, schedule: Q04DX002 (ip), vehicle: saline with Tween-80 88 % of control and 90 % of control
